This passage reports IC50 and EC50 results from patent US8916708B2, “Urea derivatives and their therapeutic use in the treatment of, inter alia, diseases of the respiratory tract” (Chiesi Farmaceutici S.p.A., priority 2010, dated 2014).

One may read the IC50 as the concentration needed to halve the response being measured. As a reminder, the EC50 is the concentration that produces a half-maximal response.

SMILES strings stand for the structures.

The target in assay [1] is T1, Human recombinant p38 enzyme (p38α) (Homo sapiens, UniProt Q16539).
T1 construct: purchased Calbiochem 559324; host or cells: E. coli
T1 sequence (Q16539 whole entry): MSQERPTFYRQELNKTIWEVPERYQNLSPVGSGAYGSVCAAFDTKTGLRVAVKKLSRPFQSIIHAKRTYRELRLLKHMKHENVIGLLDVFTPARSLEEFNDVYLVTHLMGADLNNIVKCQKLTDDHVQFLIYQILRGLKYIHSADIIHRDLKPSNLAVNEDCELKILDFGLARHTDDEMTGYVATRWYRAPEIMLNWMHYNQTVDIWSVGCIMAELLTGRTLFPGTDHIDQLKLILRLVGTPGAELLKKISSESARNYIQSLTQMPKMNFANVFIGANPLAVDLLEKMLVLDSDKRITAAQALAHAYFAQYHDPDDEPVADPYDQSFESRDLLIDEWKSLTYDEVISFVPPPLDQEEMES
The assay can be described thus: p38 Kinase Assay (ATF-2 phosphorylation ELISA). Type of assay: biochemical. The following applies: 2h pre-incubation with p38 kinase, ATP 250 μM, 1% DMSO; read-out: p38α inhibition (IC50). The protocol: Human recombinant p38 enzyme expressed in E. coli and activated by incubation with MKK6 enzyme (Calbiochem #559324) is used as source of enzyme activity.
The assay is carried in high binding, clear, flat bottom 96 well assay plates which have been coated with recombinant ATF-2 (Biosource #PHF0043). Test compounds are incubated with p38 kinase for 2h prior to initiating the kinase assay by the addition of ATP to obtain an assay concentration of 250 μM . Phosphorylation of ATF-2 is detected and quantified using an ELISA. This consists of sequential incubation in the presence of anti-phospho-ATF2, biotinylated anti-IgG and streptavidin-HRP. Incubation with an HRP chromogenic substrate (TMB) results in absorbance that is proportional to the amount of phosphorylated substrate produced. Absorbance is detected using a multiwell plate reader.
Compounds are diluted in DMSO prior to addition to assay buffer, the final DMSO concentration in the assay being 1%.
The IC50 is defined as the concentration at which a given compound achieves 50% inhibition of control.

The test system of assay [2] is LPS activated THP-1 cells (TNFα release). The assay can be described thus: p38 Functional Assay: TNFα release from LPS activated THP-1 cells. Type of assay: cell-based. The following applies: Homo sapiens, inhibition of TNFα release, 1h pre-treatment then LPS, 0.3% DMSO. The protocol:
Inhibition of cellular p38 depresses the release of TNFα, a functional response which is quantified by measurement of the amount of TNFα in the supernatants of LPS activated THP-1 cells (an immortalised monocytic cell line) or peripheral blood mononuclear cells (PBMC's) isolated from freshly drawn human blood.
Cells seeded in 96 well plates are pre-treated by the addition of p38 inhibitors for 1h followed by addition of lipopolysaccharide (LPS) to activate cytokine production and release. The amount of TNFα released into the cell supernatants is quantified using an R&D Systems enzyme linked immunosorbant assay (ELISA) kit (product DY210) following the manufacturers instructions.
Compounds are diluted in DMSO prior to addition, the final DMSO concentration in the assay being 0.3%. The EC50 is defined as the concentration at which a given compound achieves 50% inhibition of the control.

`Cc1ccc(-n2nc(C(C)(C)C)cc2NC(=O)N[C@H]2CC[C@@H](Oc3ccc4nnc(C(C)C)n4c3)c3ccccc32)cc1` (racemic) [Example 1, (+/−) 1-(5-tert-Butyl-2-p-tolyl-2H-pyrazol-3-yl)-3-[4-(3-isopropyl-[1,2,4]-triazolo[4,3-a]pyridin-6-yloxy)-cis-1,2,3,4-tetrahydro-naphthalen-1-yl]-urea]: the IC50 in assay [1] was less than 10 nM. Moreover, the EC50 in assay [2] is less than 10 nM.

Regarding `Cc1ccc(-n2nc(C(C)(C)C)cc2NC(=O)N[C@H]2CC[C@H](Oc3ccc4nnc(C(C)C)n4c3)c3ccccc32)cc1` (racemic) [Example 2, (+/−) 1-(5-tert-Butyl-2-p-tolyl-2H-pyrazol-3-yl)-3-[4-(3-isopropyl[1,2,4]triazolo[4,3-a]pyridin-6-yloxy)-trans-1,2,3,4-tetrahydro-naphthalen-1-yl]-urea], the IC50 in assay [1] is less than 10 nM. In addition, the EC50 in assay [2] is less than 10 nM.

With `Cc1ccc(-n2nc(C(C)(C)C)cc2NC(=O)N[C@H]2CC[C@@H](Oc3ccc4nnc(-c5ccccc5Cl)n4c3)c3ccccc32)cc1` (racemic) [Example 3, (+/−)1-(5-tert-Butyl-2-p-tolyl-2H-pyrazol-3-yl)-3-{4-[3-(2-chloro-phenyI)-[1,2,4]triazolo[4,3-a]pyridin-6-yloxy]-cis-1,2,3,4-tetrahydro-naphthalen-1-yl}-urea], the IC50 in assay [1] was less than 10 nM. The EC50 in assay [2] was less than 10 nM.

As for `Cc1ccc(-n2nc(C(C)(C)C)cc2NC(=O)N[C@H]2CC[C@@H](Oc3ccc4nnc(-c5c(Cl)cccc5Cl)n4c3)c3ccccc32)cc1` (racemic) [Example 4, (+/−)1-(5-tert-Butyl-2-p-tolyl-2H-pyrazol-3-yl)-3-{4-[3-(2,6-dichloro-phenyl)[1,2,4]triazolo[4,3-a]pyridin-6-yloxy]-cis-1,2,3,4-tetrahydro-naphthalen-1-yl}-urea], the concentration for half-maximal inhibition (IC50) in assay [1] was less than 10 nM. In assay [2], the EC50 was less than 10 nM.

Regarding `Cc1ccc(-n2nc(C(C)(C)C)cc2NC(=O)N[C@H]2CC[C@@H](Oc3ccc4nnc(-c5ccccc5OCc5ccccc5)n4c3)c3ccccc32)cc1` (racemic) [Example 5], the IC50 in assay [1] lay within 10 to 100 nM.

Consider `CC(C)c1nnc2ccc(O[C@@H]3CC[C@H](NC(=O)Nc4cc(C(C)(C)C)on4)c4ccccc43)cn12` (racemic) [Example 6, (+/−) 1-(5-tert-Butyl-isoxazol-3-yl)-3-[4-(3-isopropyl-[1,2,4]triazolo[4,3-a]pyridin-6-yloxy)-cis-1,2,3,4-tetrahydro-naphthalen-1-yl]-urea], for which the IC50 in assay [1] is less than 10 nM. In addition, in assay [2], the EC50 was less than 10 nM.

Turning to `Cc1ccc(-n2nc(C(C)(C)C)cc2NC(=O)N[C@H]2CC[C@@H](Oc3ccc4nnc(-c5ccccc5O)n4c3)c3ccccc32)cc1` (racemic) [Example 7, (+/−) 1-(5-tert-Butyl-2-p-tolyl-2H-pyrazol-3-yl)-3-{4-[3-(2-hydroxy-phenyl) [1,2,4]triazolo[4,3-a]pyridin-6-yloxy]-cis-1,2,3,4-tetrahydro-naphthalen-1-yl}-urea], the IC50 in assay [1] was less than 10 nM. Further, the EC50 in assay [2] was less than 10 nM.

Turning to `Cc1ccc(-n2nc(C(C)(C)C)cc2NC(=O)N[C@H]2CCC[C@@H](Oc3ccc4nnc(C(C)C)n4c3)c3ccccc32)cc1` (racemic) [Example 18, (+/−) 1-(5-tert-Butyl-2-p-tolyl-2H-pyrazol-3-yl)-3-[9-(3-isopropyl-[1,2,4]triazolo[4,3-a]pyridin-6-yloxy)-cis-6,7,8,9-tetrahydro-5H-benzocyclohepten-5-yl]-urea], the concentration for half-maximal inhibition (IC50) in assay [1] fell in the range of 10 to 100 nM.

For the compound `Cc1ccc(-n2nc(C(C)(C)C)cc2NC(=O)N[C@H]2CCC[C@H](Oc3ccc4nnc(C(C)C)n4c3)c3ccccc32)cc1` (racemic) [Example 19, (+/−) 1-(5-tert-Butyl-2-p-tolyl-2H-pyrazol-3-yl)-3-[9-(3-isopropyl-[1,2,4]triazolo[4,3-a]pyridin-6-yloxy)-trans-6,7,8,9-tetrahydro-5H-benzocyclohepten-5-yl]-urea], in assay [1], the IC50 lay in the range of 10 to 100 nM.

With `Cc1ccc(-n2nc(C(C)(C)C)cc2NC(=O)N[C@@H]2CC[C@@H](Oc3ccc4nnc(C(C)C)n4c3)c3ccccc32)cc1` [Example 8, 1-(5-tert-Butyl-2-p-tolyl-2H-pyrazol-3-yl)-3-[(1R,4R)-4-(3-isopropyl-[1,2,4]triazolo[4,3-a]pyridin-6-yloxy)-1,2,3,4-tetrahydro-naphthalen-1-yl]-urea], the IC50 in assay [1] fell in the range of 100 to 500 nM.

As for `Cc1ccc(-n2nc(C(C)(C)C)cc2NC(=O)N[C@@H]2CC[C@H](Oc3ccc4nnc(C(C)C)n4c3)c3ccccc32)cc1` [Example 9, 1-(5-tert-Butyl-2-p-tolyl-2H-pyrazol-3-yl)-3-[(1R,4S)-4-(3-isopropyl-[1,2,4]triazolo[4,3-a]pyridin-6-yloxy)-1,2,3,4-tetrahydro-naphthalen-1-yl]-urea], the IC50 in assay [1] fell in the range of 100 to 500 nM.

`Cc1ccc(-n2nc(C(C)(C)C)cc2NC(=O)N[C@H]2CC[C@@H](Oc3ccc4nnc(C(C)C)n4c3)c3ccccc32)cc1` [Example 10, 1-(5-tert-Butyl-2-p-tolyl-2H-pyrazol-3-yl)-3-[(1S,4R)-4-(3-isopropyl-[1,2,4]triazolo[4,3-a]pyridin-6-yloxy)-1,2,3,4-tetrahydro-naphthalen-1-yl]-urea]: the IC50 in assay [1] is less than 10 nM. The EC50 in assay [2] was less than 10 nM.

Regarding `Cc1ccc(-n2nc(C(C)(C)C)cc2NC(=O)N[C@H]2CC[C@H](Oc3ccc4nnc(C(C)C)n4c3)c3ccccc32)cc1` [Example 11, 1-(5-tert-Butyl-2-p-tolyl-2H-pyrazol-3-yl)-3-[(1S,4S)-4-(3-isopropyl-[1,2,4]triazolo[4,3-a]pyridin-6-yloxy)-1,2,3,4-tetrahydro-naphthalen-1-yl]-urea], the IC50 in assay [1] is less than 10 nM. The EC50 in assay [2] is less than 10 nM.

On to `Cc1ccc(-n2nc(C(C)(C)C)cc2NC(=O)N[C@@H]2C[C@@H](Oc3ccc4nnc(C(C)C)n4c3)c3ccccc32)cc1` [Example 12, 1-(5-tert-Butyl-2-p-tolyl-2H-pyrazol-3-yl)-3-[(1R,3R)-3-(3-isopropyl[1,2,4]triazolo[4,3a]pyridin-6-yloxy)-indan-1-yl]urea], for which the 50% inhibitory concentration (IC50) in assay [1] fell in the range of 100 to 500 nM.

As to `Cc1ccc(-n2nc(C(C)(C)C)cc2NC(=O)N[C@H]2C[C@H](Oc3ccc4nnc(C(C)C)n4c3)c3ccccc32)cc1` [Example 13, 1-(5-tert-Butyl-2-p-tolyl-2H-pyrazol-3-yl)-3-[(1S,3S)-3-(3-isopropyl-[1,2,4]triazolo[4,3-a]pyridin-6-yloxy)-indan-1-yl]-urea], in assay [1], the IC50 was less than 10 nM.

Regarding `Cc1ccc(-n2nc(C(C)(C)C)cc2NC(=O)N[C@@H]2C[C@H](Oc3ccc4nnc(C(C)C)n4c3)c3ccccc32)cc1` [Example 14, 1-(5-tert-Butyl-2-p-tolyl-2H-pyrazol-3-yl)-3-[(1R,3S)-3-(3-isopropyl-[1,2,4]-triazolo[4,3-a]pyridin-6-yloxy)-indan-1-yl]-urea], the IC50 in assay [1] is 500 to 7000 nM.

`Cc1ccc(-n2nc(C(C)(C)C)cc2NC(=O)N[C@H]2C[C@@H](Oc3ccc4nnc(C(C)C)n4c3)c3ccccc32)cc1` [Example 15, 1-(5-tert-Butyl-2-p-tolyl-2H-pyrazol-3-yl)-3-[(1S,3R)-3-(3-isopropyl-[1,2,4]triazolo[4,3-a]pyridin-6-yloxy)-indan-1-yl]-urea]: the IC50 in assay [1] lay within 500 to 7000 nM.

With `CC(C)c1nnc2ccc(O[C@H]3CC[C@H](NC(=O)Nc4cc(C(C)(C)C)on4)c4ccccc43)cn12` [Example 16, 1-(5-tert-Butyl-isoxazol-3-yl)-3-[(1S,4S)-4-(3-isopropyl-[1,2,4]-triazolo[4,3-a]pyridin-6-yloxy)-1,2,3,4-tetrahydro-naphthalen-1-yl]-urea], in assay [1], the half-inhibitory concentration (IC50) was less than 10 nM.

On to `COc1c(NC(=O)N[C@H]2CC[C@H](Oc3ccc4nnc(C(C)C)n4c3)c3ccccc32)cc(C(C)(C)C)cc1NS(C)(=O)=O` [Example 17, N-(5-tert-Butyl-3-{3-[(1S,4S)-4-(3-isopropyl-[1,2,4]triazolo[4,3-a]pyridin-6-yloxy)-1,2,3,4-tetrahydro-naphthalen-1-yl]-ureido}-2-methoxy-phenyl)-methanesulfonamide], for which, in assay [1], the IC50 was less than 10 nM.

With `Cc1ccc(-n2nc(C(C)(C)C)cc2NC(=O)N[C@H]2CC[C@H](Oc3ccc4nnc(-c5ccccc5SCCO)n4c3)c3ccccc32)cc1` [Example 20, 1-(5-tert-Butyl-2-p-tolyl-2H-pyrazol-3-yl)-3-((1S,4S)-4-{3-[2-(2-hydroxy-ethylsulfanyl)-phenyl]-[1,2,4]triazolo[4,3-a]pyridin-6-yloxy}-1,2,3,4-tetrahydro-naphthalen-1-yl)-urea], the IC50 in assay [1] was less than 10 nM.

`COCC(=O)Nc1cc(CO[C@H]2CC[C@H](NC(=O)Nc3cc(C(C)(C)C)nn3-c3ccc(C)cc3)c3ccccc32)ccn1` [Example 22, N-(4-{(1S,4S)-4-[3-(5-tert-Butyl-2-p-tolyl-2H-pyrazol-3-yl)-ureido]-1,2,3,4-tetrahydro-naphthalen-1-yloxymethyl}-pyridin-2-yl)-2-methoxy-acetamide]: the IC50 in assay [1] was less than 10 nM.
